Reference: ChEMBL document CHEMBL4020733, “Approaches towards the development of chimeric DPP4/ACE inhibitors for treating metabolic syndrome” (Bioorg Med Chem Lett, 2017)

Legend:
[1] = Plasma protein binding in mouse; type: ADME, cell-free; conditions: read-out: PPB (converted)
[2] = Plasma protein binding in human; type: ADME, cell-free; conditions: read-out: PPB (converted)
[3] = Plasma protein binding in rat; type: ADME, cell-free; conditions: read-out: PPB (converted)
Dipeptidyl peptidase 4 = Dipeptidyl peptidase 4 (Homo sapiens, UniProt P27487); assay: Inhibition of human plasma DPP4
[4] = Inhibition of APP (unknown origin); parameters: species or system Homo sapiens
Neprilysin = Neprilysin (Homo sapiens, UniProt P08473); assay: Inhibition of NEP (unknown origin)
[5] = biological target: Angiotensin-converting enzyme (Homo sapiens, UniProt P12821); assay: Inhibition of human plasma ACE
Aminopeptidase N = Aminopeptidase N (Homo sapiens, UniProt P15144); assay: Inhibition of APN (unknown origin)
Sequence of Aminopeptidase N (P15144 whole entry): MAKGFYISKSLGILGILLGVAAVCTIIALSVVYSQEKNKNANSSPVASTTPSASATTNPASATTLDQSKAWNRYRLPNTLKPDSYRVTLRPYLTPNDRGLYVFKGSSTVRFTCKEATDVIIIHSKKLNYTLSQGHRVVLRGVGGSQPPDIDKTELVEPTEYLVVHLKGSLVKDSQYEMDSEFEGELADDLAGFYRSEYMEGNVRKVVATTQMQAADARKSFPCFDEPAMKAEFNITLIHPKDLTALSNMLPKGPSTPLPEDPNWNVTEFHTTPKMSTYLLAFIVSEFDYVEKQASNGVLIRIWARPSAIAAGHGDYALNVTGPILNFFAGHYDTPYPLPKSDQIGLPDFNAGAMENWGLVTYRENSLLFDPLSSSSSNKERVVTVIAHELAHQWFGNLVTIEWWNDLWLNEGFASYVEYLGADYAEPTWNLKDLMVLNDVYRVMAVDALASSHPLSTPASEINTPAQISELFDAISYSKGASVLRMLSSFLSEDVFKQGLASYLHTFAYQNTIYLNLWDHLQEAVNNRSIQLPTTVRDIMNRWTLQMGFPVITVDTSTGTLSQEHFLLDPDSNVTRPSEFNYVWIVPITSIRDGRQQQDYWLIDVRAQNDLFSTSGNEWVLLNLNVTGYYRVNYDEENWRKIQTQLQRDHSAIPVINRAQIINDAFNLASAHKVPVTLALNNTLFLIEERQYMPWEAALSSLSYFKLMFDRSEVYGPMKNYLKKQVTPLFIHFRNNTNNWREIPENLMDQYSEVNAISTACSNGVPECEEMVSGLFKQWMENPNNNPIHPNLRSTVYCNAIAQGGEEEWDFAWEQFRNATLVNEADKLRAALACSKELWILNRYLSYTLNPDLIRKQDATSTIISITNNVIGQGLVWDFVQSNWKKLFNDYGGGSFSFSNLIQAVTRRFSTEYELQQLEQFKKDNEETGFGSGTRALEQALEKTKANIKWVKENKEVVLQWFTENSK

Sequence of Angiotensin-converting enzyme (P12821 whole entry): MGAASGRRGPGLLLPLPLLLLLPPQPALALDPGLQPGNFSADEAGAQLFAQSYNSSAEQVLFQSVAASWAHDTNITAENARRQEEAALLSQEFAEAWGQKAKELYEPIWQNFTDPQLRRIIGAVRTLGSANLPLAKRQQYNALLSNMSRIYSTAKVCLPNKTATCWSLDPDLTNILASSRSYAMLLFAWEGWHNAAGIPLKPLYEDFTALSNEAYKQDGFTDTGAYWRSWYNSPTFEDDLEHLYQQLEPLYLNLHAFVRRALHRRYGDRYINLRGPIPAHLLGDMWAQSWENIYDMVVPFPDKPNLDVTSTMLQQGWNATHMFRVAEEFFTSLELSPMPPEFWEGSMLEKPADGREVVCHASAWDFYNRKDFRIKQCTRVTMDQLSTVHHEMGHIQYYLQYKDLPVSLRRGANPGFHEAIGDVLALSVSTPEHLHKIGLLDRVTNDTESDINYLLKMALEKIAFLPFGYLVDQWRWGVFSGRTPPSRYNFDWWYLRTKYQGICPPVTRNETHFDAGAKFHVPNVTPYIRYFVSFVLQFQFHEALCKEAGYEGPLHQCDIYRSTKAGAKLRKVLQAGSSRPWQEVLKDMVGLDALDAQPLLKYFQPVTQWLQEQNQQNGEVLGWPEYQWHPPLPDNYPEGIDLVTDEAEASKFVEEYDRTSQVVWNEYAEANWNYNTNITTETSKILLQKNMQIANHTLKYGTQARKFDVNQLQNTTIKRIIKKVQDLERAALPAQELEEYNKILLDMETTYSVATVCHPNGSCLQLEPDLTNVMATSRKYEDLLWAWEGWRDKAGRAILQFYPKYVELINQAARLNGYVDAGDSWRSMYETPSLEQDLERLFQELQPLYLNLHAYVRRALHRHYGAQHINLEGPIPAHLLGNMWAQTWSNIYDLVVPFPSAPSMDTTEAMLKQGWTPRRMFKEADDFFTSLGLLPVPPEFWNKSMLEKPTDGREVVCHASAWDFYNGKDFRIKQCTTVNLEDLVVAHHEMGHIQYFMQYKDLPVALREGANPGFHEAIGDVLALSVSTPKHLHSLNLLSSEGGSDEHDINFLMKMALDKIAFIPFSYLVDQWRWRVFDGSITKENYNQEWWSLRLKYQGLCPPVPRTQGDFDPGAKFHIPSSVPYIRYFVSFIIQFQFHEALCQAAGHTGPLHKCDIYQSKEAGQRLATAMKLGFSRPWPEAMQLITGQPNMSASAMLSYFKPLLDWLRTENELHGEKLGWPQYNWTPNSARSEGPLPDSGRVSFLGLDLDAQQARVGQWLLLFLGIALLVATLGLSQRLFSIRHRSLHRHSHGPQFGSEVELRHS
Sequence of Neprilysin (P08473 whole entry): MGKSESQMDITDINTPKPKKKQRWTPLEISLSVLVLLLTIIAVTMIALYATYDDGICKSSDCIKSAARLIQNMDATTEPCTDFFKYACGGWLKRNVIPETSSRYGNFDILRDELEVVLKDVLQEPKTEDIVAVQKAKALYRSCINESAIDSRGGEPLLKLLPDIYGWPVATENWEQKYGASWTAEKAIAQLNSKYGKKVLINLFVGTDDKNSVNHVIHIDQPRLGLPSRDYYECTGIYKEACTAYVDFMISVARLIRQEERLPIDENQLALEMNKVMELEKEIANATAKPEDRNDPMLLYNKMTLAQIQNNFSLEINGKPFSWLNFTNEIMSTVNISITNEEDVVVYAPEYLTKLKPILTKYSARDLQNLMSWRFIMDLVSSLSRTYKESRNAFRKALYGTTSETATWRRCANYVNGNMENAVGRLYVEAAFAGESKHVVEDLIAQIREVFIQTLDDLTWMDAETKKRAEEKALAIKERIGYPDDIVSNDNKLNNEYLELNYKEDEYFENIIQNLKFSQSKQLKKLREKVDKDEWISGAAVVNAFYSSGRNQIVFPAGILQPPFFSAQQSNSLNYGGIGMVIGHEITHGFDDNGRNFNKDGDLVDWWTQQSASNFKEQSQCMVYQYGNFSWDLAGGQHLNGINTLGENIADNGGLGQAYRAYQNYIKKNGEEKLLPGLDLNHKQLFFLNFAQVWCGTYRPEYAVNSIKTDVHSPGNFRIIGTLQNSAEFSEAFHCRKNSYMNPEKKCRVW
Sequence of Dipeptidyl peptidase 4 (P27487 whole entry): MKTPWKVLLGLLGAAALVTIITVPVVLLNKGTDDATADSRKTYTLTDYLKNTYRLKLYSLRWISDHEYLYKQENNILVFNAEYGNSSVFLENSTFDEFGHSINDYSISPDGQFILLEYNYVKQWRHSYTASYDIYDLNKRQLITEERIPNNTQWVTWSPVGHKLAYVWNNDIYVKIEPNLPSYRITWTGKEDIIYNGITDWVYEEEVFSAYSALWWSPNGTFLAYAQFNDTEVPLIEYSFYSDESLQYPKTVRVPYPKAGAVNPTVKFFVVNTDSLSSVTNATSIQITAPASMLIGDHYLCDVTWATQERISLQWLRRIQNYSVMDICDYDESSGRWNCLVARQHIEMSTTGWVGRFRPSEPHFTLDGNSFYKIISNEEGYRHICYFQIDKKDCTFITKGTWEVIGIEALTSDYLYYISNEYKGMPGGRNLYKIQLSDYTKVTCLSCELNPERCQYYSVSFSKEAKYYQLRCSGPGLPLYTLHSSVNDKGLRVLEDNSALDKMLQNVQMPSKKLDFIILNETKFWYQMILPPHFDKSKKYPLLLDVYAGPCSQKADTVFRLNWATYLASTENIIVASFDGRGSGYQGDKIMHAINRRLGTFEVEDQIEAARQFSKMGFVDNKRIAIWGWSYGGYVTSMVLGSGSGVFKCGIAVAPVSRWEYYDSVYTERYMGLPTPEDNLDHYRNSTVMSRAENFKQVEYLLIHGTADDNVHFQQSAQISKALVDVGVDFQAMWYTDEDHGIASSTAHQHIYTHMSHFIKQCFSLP

Row | Structure (SMILES) | fraction unbound [1] | fraction unbound [2] | fraction unbound [3] | IC50 (Dipeptidyl peptidase 4) [µM] | IC50 [4] [µM] | IC50 (Neprilysin) [µM] | IC50 [5] [µM] | IC50 (Aminopeptidase N) [µM]
1 | C[C@H](N[C@@H](CCc1ccccc1)C(=O)O)C(=O)N1CCC[C@H]1C(=O)O [ENALAPRILAT ANHYDROUS] | 0.424 | 0.341 | 0.456 | > 100 |  |  |  | 
2 | N[C@@H](CC(=O)N1CCn2c(nnc2C(F)(F)F)C1)Cc1cc(F)c(F)cc1F [SITAGLIPTIN] | 0.707 | 0.53 | 0.587 |  | > 100 | > 100 | 11 | > 100
